Experiments:
Experiment in all cases: Test D
Format in all cases: in vivo
[1] = system: green foxtail (Setaria viridis); parameters: key: 0 is no effect; 100 is complete control; details: PREEMERGENCE
[2] = system: winter wheat (Triticum aestivum); parameters: key: 0 is no effect; details: PREEMERGENCE
[3] = system: sunflower (Helianthus annuus); details: PREEMERGENCE
[4] = system: lambsquarters (Chenopodium album); details: PREEMERGENCE
[5] = system: jointed goatgrass (Aegilops cylindrica); details: POSTEMERGENCE
Procedure: (§1) Compounds evaluated in this test were formulated in a non-phytotoxic solvent mixture which included a surfactant and applied to plants that were in the 1- to 4-leaf stage (postemergence application). A mixture of sandy loam soil and greenhouse potting mix in a 60:40 ratio was used for the postemergence test.
(§2) Plantings of these crops and weed species were adjusted to produce plants of appropriate size for the postemergence test. All plant species were grown using normal greenhouse practices. Crop and weed species include alfalfa (Medicago sativa), annual bluegrass (Poa annua), blackgrass (Alopecurus myosuroides), black nightshade (Solanum nigra), chickweed (Stellaria media), common poppy (Papaver rhoeas), deadnettle (Lamium amplexicaule), downy brome (Bromus tectorum), field violet (Viola arvensis), galium 2 (Galium aparine), green foxtail (Setaria viridis), Italian ryegrass (Lolium multiflorum), jointed goatgrass (Aegilops cylindrica), kochia (Kochia scoparia), lambsquarters (Chenopodium album), lentil (Lens culinaris), littleseed canarygrass (Phalaris minor), pea (Pisum sativum), potato (Solanum tuberosum), rape (Brassica napus), redroot pigweed (Amaranthus retroflexus), Russian thistle (Salsola kali), scentless chamomile (Matricaria inodora), sorghum (Sorghum vulgare), spring barley (Hordeum vulgare), sugar beet (Beta vulgaris), sunflower (Helianthus annuus), ivyleaf speedwell (Veronica hederaefolia), spring wheat (Triticum aestivum), winter wheat (Triticum aestivum), wild buckwheat (Polygonum convolvulus), wild mustard (Sinapis arvensis), wild oat (Avena fatua), windgrass (Apera spica-venti) and winter barley (Hordeum vulgare).
(§3) Treated plants and untreated controls were maintained in a greenhouse for approximately 21 to 28 days, after which all treated plants were compared to untreated controls and visually evaluated. Plant response ratings, summarized in Table D, are based upon a 0 to 100 scale where 0 is no effect and 100 is complete control. A dash response (−) means no test result.

[6] = system: spring barley (Hordeum vulgare); details: POSTEMERGENCE
Procedure: as §1, §2, §3

wild oat (Avena fatua) = details: POSTEMERGENCE
Procedure: as §1, §2, §3

[7] = system: winter wheat (Triticum aestivum); details: POSTEMERGENCE
Procedure: as §1, §2, §3

[8] = system: annual bluegrass (Poa annua); details: POSTEMERGENCE
Procedure: as §1, §2, §3

[9] = system: sunflower (Helianthus annuus); details: POSTEMERGENCE
Procedure: as §1, §2, §3

[10] = system: downy brome (Bromus tectorum); details: POSTEMERGENCE
Procedure: as §1, §2, §3

[11] = system: spring wheat (Triticum aestivum); details: POSTEMERGENCE
Procedure: as §1, §2, §3

[12] = system: Italian ryegrass (Lolium multiflorum); details: POSTEMERGENCE
Procedure: as §1, §2, §3

[13] = system: windgrass (Apera spica-venti); details: POSTEMERGENCE, Rate 62 g/ha
Procedure: as §1, §2, §3

[14] = system: scentless chamomile (Matricaria inodora); details: POSTEMERGENCE
Procedure: as §1, §2, §3

[15] = system: blackgrass (Alopecurus myosuroides); details: POSTEMERGENCE
Procedure: as §1, §2, §3

[16] = system: winter barley (Hordeum vulgare); details: POSTEMERGENCE
Procedure: as §1, §2, §3

[17] = system: littleseed canarygrass (Phalaris minor); details: POSTEMERGENCE
Procedure: as §1, §2, §3

[18] = system: green foxtail (Setaria viridis); details: POSTEMERGENCE
Procedure: as §1, §2, §3

kochia (Kochia scoparia) = details: POSTEMERGENCE
Procedure: as §1, §2, §3

[19] = system: galium 2 (Galium aparine); details: POSTEMERGENCE
Procedure: as §1, §2, §3

[20] = system: redroot pigweed (Amaranthus retroflexus); details: POSTEMERGENCE
Procedure: as §1, §2, §3

[21] = system: wild buckwheat (Polygonum convolvulus); details: POSTEMERGENCE
Procedure: as §1, §2, §3

`CCc1cnc(-n2ccc(C(F)(F)F)n2)nc1Cc1cccc(C(F)(F)F)c1` [Compound 46] was tested, and the “Plant response rating, Green foxtail” value ([1]; Rate 31 g/ha) was 80, the “Plant response rating, Green foxtail” value ([1]; Rate 62 g/ha) was 100 and the “Plant response rating, Wheat (winter)” value ([2]; Rate 31 g/ha) was 40. The “Plant response rating, Wheat (winter)” value ([2]; Rate 62 g/ha) was 2, the “Plant response rating, Sunflower” value ([3]; Rate 31 g/ha) was 10 and the “Plant response rating, Sunflower” value ([3]; Rate 62 g/ha) was 30. The “Plant response rating, Lambsquarters” value ([4]; Rate 31 g/ha) was 65 and the “Plant response rating, Lambsquarters” value ([4]; Rate 62 g/ha) was 70.

For `CCc1cnc(-c2ccc(C(F)(F)F)cc2)nc1Cc1cccc(C(F)(F)F)c1` [Compound 22], the “Plant response rating, Jointed goatgra” value ([5]; Rate 62 g/ha) was 10, the “Plant response rating, Jointed goatgra” value ([5]; Rate 125 g/ha) was 15 and the “Plant response rating, Spring Barley” value ([6]; Rate 62 g/ha) was 10. For the same compound, the “Plant response rating, Spring Barley” value ([6]; Rate 125 g/ha) was 20, the “Plant response rating, Wild oat” value (wild oat (Avena fatua); Rate 62 g/ha) was 20 and the “Plant response rating, Wild oat” value (wild oat (Avena fatua); Rate 125 g/ha) was 65. For the same compound, the “Plant response rating, Wheat (winter)” value ([7]; Rate 62 g/ha) was 10, the “Plant response rating, Wheat (winter)” value ([7]; Rate 125 g/ha) was 10 and the “Plant response rating, Annual bluegras” value ([8]; Rate 62 g/ha) was 30. The “Plant response rating, Annual bluegras” value ([8]; Rate 125 g/ha) was 70, the “Plant response rating, Sunflower” value ([9]; Rate 62 g/ha) was 10 and the “Plant response rating, Sunflower” value ([9]; Rate 125 g/ha) was 20. The “Plant response rating, Downy brome” value ([10]; Rate 62 g/ha) was 10, the “Plant response rating, Downy brome” value ([10]; Rate 125 g/ha) was 20 and the “Plant response rating, Spring Wheat” value ([11]; Rate 62 g/ha) was 10. For the same compound, the “Plant response rating, Spring Wheat” value ([11]; Rate 125 g/ha) was 20, the “Plant response rating, I. Ryegrass” value ([12]; Rate 62 g/ha) was 10 and the “Plant response rating, I. Ryegrass” value ([12]; Rate 125 g/ha) was 10. For the same compound, the “Plant response rating, Windgrass” value [13] was 30, the “Plant response rating, Scentless chamo” value ([14]; Rate 62 g/ha) was 50 and the “Plant response rating, Scentless chamo” value ([14]; Rate 125 g/ha) was 80. The “Plant response rating, Blackgrass” value ([15]; Rate 62 g/ha) was 10, the “Plant response rating, Blackgrass” value ([15]; Rate 125 g/ha) was 20 and the “Plant response rating, Barley (winter)” value ([16]; Rate 62 g/ha) was 10. The “Plant response rating, Barley (winter)” value ([16]; Rate 125 g/ha) was 10, the “Plant response rating, LS canarygrass” value ([17]; Rate 62 g/ha) was 20 and the “Plant response rating, LS canarygrass” value ([17]; Rate 125 g/ha) was 60. The “Plant response rating, Green foxtail” value ([18]; Rate 62 g/ha) was 10, the “Plant response rating, Green foxtail” value ([18]; Rate 125 g/ha) was 35 and the “Plant response rating, Green foxtail” value ([1]; Rate 62 g/ha) was 10. For the same compound, the “Plant response rating, Green foxtail” value ([1]; Rate 125 g/ha) was 100, the “Plant response rating, Green foxtail” value ([1]; Rate 250 g/ha) was 100 and the “Plant response rating, Wheat (winter)” value ([2]; Rate 62 g/ha) was 0. The “Plant response rating, Wheat (winter)” value ([2]; Rate 125 g/ha) was 10, the “Plant response rating, Wheat (winter)” value ([2]; Rate 250 g/ha) was 5 and the “Plant response rating, Kochia” value (kochia (Kochia scoparia); Rate 62 g/ha) was 50. For the same compound, the “Plant response rating, Kochia” value (kochia (Kochia scoparia); Rate 125 g/ha) was 70, the “Plant response rating, Galium” value ([19]; Rate 62 g/ha) was 70 and the “Plant response rating, Galium” value ([19]; Rate 125 g/ha) was 90. The “Plant response rating, Redroot pigweed” value ([20]; Rate 62 g/ha) was 50, the “Plant response rating, Redroot pigweed” value ([20]; Rate 125 g/ha) was 70 and the “Plant response rating, Wild buckwheat” value ([21]; Rate 62 g/ha) was 20. For the same compound, the “Plant response rating, Wild buckwheat” value ([21]; Rate 125 g/ha) was 20, the “Plant response rating, Sunflower” value ([3]; Rate 62 g/ha) was 20 and the “Plant response rating, Sunflower” value ([3]; Rate 125 g/ha) was 10. The “Plant response rating, Sunflower” value ([3]; Rate 250 g/ha) was 30, the “Plant response rating, Lambsquarters” value ([4]; Rate 62 g/ha) was 60 and the “Plant response rating, Lambsquarters” value ([4]; Rate 125 g/ha) was 70. The “Plant response rating, Lambsquarters” value ([4]; Rate 250 g/ha) was 70.
